Read-outs that look alike come from different tables or passages of the source.

This is an account of results in patent EP0157637A2, “Heterocyclic compounds” (THE WELLCOME FOUNDATION LIMITED, priority 1984, dated 1985).

The subject of series [1] is rats. Kind of series: maximal electroshock test (MES), anticonvulsant activity in rats. It is filed as in vivo. Conditions: for ED50: Rattus norvegicus. On the procedure: The anticonvulsant activity of certain compounds of the present invention was determined by a standard maximal electroshock test (MES); that described by L.A. Woodbury and V.D. Davenport, Arch. Int. Pharmacodyn., 1952, 92, 97.

Series [2] relates to Eimeria tenella. Kind of series: in vivo anticoccidial activity against Eimeria tenella. The settings on record: Concentration 400 ppm, cleared/total. On the procedure:
The in vivo activity of two compounds of the present invention and a compound disclosed in US Patent No. 4189485 were determined against Eimeria tenella by the method disclosed in European Patent No. 0021293.

Series [3] in a line: LD50 in the rat. Conditions: in vivo, po, approximate.
Setting [4] is: ip, rats, i.p., read-out: MES ED50 (mg/kg) i.p.
[5] abbreviates: po, rats, p.o., read-out: MES ED50 (mg/kg) p.o.

As for `Nc1ncnc2c1ncn2Cc1ccccc1F` [Compound 16, 6-Amino-9-(2-fluorobenzyl)-9H-purine], the ED50 in series [1] (setting [4]) was determined as 2.4 ± 0.6 mg/kg; in series [1] (setting [5]), 2.2 ± 0.4 mg/kg. Consider `OCNc1ncnc2c1ncn2Cc1ccccc1F` [Compound 29, 9-(2-Fluorobenzyl)-6-hydroxymethylamino-9H-purine], for which the ED50 in series [1] (setting [4]) turned out to be 4 mg/kg. On the same count and under the same terms, under `Nc1ncnc2c1ncn2Cc1c(F)cccc1F` [Compound 27, 6-amino-9-(2,6-difluorobenzyl)-9H-purine] stands 9 mg/kg. On to `CN(C)c1ncnc2c1ncn2Cc1ccccc1F` [Compound 2, 6-dimethylamino-9-(2-fluorobenzyl)-9H-purine], for which the E.tenella cleared in series [2] was 0/5. Moreover, the ED50 in series [1] (setting [4]) worked out at 8.8 ± 1.7 mg/kg. On to `COCN(C)c1ncnc2c1ncn2Cc1ccccc1F` [Compound 30, 9-(2-Fluorobenzyl)-6-(N-methoxymethyl-N-methylamino)-9H-purine], for which the ED50 in series [1] (setting [4]) was 5 mg/kg.

`CNc1ncnc2c1ncn2Cc1cc(F)ccc1F` [Compound 15, 9-(2,5-Difluorobenzyl)-6-methylamino-9H-purine]: the values for the ED50 in series [1] (setting [4]) and in series [1] (setting [5]) were 4 ± 0.6 mg/kg and 7 ± 1 mg/kg, respectively.

As to `CCCNc1ncnc2c1ncn2Cc1ccccc1F` [Compound 9, 9-(2-fluorobenzyl)-6-propylamino-9H-purine], the ED50 in series [1] (setting [4]) turned out to be 5.1 ± 0.5 mg/kg; in series [1] (setting [5]), 4.6 ± 1 mg/kg.

By LD50 is commonly meant the dose expected to kill half of the subjects tested. A lower LD50 goes with greater toxicity. Regarding `CNc1ncnc2c1ncn2Cc1ccccc1F` [Compound 1, 9-(2-Fluorobenzyl)-6-methylamino-9H-purine], in series [2], the E.tenella cleared is on record as 2/5. This compound returned an LD50 in series [3] of approximately 1000 mg/kg. Further, the ED50 was 1.7 ± 0.4 mg/kg in series [1] (ip, read-out: MES ED50 (mg/kg) i.p.) and 2.5 ± 0.4 mg/kg in series [1] (po, read-out: MES ED50 (mg/kg) p.o.). With `CN(c1ncnc2c1ncn2Cc1ccccc1F)C1CC1` [Compound 7, 9-(2-fluorobenzyl)-6-(N-methylcyclopropylamino)-9H-purine], in series [1] (setting [4]), the ED50 is 6.8 ± 0.8 mg/kg. For the compound `Fc1ccccc1Cn1cnc2c(NC3CC3)ncnc21` [Compound 3, 6-cyclopropylamino-9-(2-fluorobenzyl)-9H-purine], the ED50 in series [1] (setting [4]) came out at 5 ± 0.4 mg/kg; in series [1] (setting [5]), 7.8 ± 0.8 mg/kg. As to `CCNc1ncnc2c1ncn2Cc1ccccc1F` [Compound 4, 6-ethylamino-9-(2-fluorobenzyl)-9H-purine], the ED50 in series [1] (setting [4]) was determined as 4.9 ± 0.5 mg/kg.

`Fc1ccccc1Cn1cnc2c(NCC3CC3)ncnc21` [Compound 6, 6-cyclopropylmethylamino-9-(2-fluorobenzyl)-9H-purine]: the ED50 in series [1] (setting [4]) was found to be 4.3 ± 0.9 mg/kg; in series [1] (setting [5]) it was 6.3 ± 1 mg/kg. `CCN(CC)c1ncnc2c1ncn2Cc1ccccc1F` [Compound 10, 6-diethylamino-9-(2-fluorobenzyl)-9H-purine]: the ED50 is 4.2 ± 0.5 mg/kg in series [1] (setting [4]) and 5.9 ± 0.6 mg/kg in series [1] (setting [5]). `Fc1ccccc1Cn1cnc2c(NC3CCCC3)ncnc21` [Compound 11, 6-cyclopentylamino-9-(2-fluorobenzyl)-9H-purine]: the ED50 in series [1] (setting [4]) is 8 ± 1 mg/kg. The same measure, in the same setting: under `CC(C)Nc1ncnc2c1ncn2Cc1ccccc1F` [Compound 5, 9-(2-fluorobenzyl)-6-isopropylamino-9H-purine] stands 5.8 ± 0.6 mg/kg.

As for `COCNc1ncnc2c1ncn2Cc1ccccc1F` [Compound 31, 9-(2-Fluorobenzyl)-6-methoxymethylamino-9H-purine], the “MES, % at 6.25mg/kg” value in series [1] (rats, 6.25mg/kg, printed in the i.p. column in place of an ED50) is “(17% at 6.25mg/kg)”. Turning to `CNc1ncnc2c1ncn2Cc1c(F)cccc1F` [Compound 13], the ED50 in series [1] (setting [4]) stood at 2 mg/kg. Regarding `Nc1ncnc2c1ncn2Cc1cc(F)ccc1F` [Compound 28, 6-amino-9-(2,5-difluorobenzyl)-9H-purine], the ED50 in series [1] (setting [4]) worked out at 5 mg/kg. `CN(C)c1ncnc2c1ncn2Cc1c(F)cccc1F` [Compound 14, ^g-(2,6-difluorobenzyl)-6-dimethylamino-9H-purine]: the ED50 in series [1] (setting [4]) was 2.2 ± 0.2 mg/kg; in series [1] (setting [5]), 3.8 ± 0.6 mg/kg.

As for `O=C1NC(=O)C(c2ccccc2)(c2ccccc2)N1` [phenytoin (Dilantin), 5,5-diphenylhydantoin, reference compound], the ED50 in series [1] (setting [4]) was found to be 10 ± 2 mg/kg; in series [1] (setting [5]), 20 ± 3 mg/kg. For the compound `CCN(C)c1ncnc2c1ncn2Cc1ccccc1F` [Compound 8], the values for the ED50 in series [1] (setting [4]) and in series [1] (setting [5]) were 2.9 ± 0.3 mg/kg and 6 ± 0.5 mg/kg, respectively. On to `Fc1cccc(F)c1Cn1cnc2c(NC3CC3)ncnc21` [Compound 12, 6-cyclopropylamino-9-(2,6-difluorobenzyl)-9H-purine], for which the values for the ED50 in series [1] (setting [4]) and in series [1] (setting [5]) were 4 mg/kg and 12.5 mg/kg, respectively.
